Assay results published in patent US10577363B2, “Substituted piperidine compounds” (EPIZYME, INC., priority 2014, dated 2020).

The compounds below were run against SMYD3 (Homo sapiens (Human), UniProt Q9H7B4) (assay: SMYD3 biochemical assay (SPA, 3H-SAM methylation of MEKK2 protein substrate)). Details: Table 1A; IC50 values are an average of n = 1 to n = 50; read-out: SMYD3 Biochem IC50.
Method in brief: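 Native full-length human SMYD3 (E. coli-expressed, tags removed) was preincubated with compound for 30 min at room temperature in 25 mM Tris-Cl pH 8.0, 1 mM TCEP, 0.005% BSG, 0.005% Tween 20. Reaction was started with 3H-SAM plus GST-MEKK2, quenched with 100 uM unlabeled SAM, and read by SPA scintillation counting.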

Point of comparison: `C[C@@H]1C[C@@H](NC(=O)c2cc(C3CC3)on2)CCN1S(=O)(=O)c1ccc(N(C)CCN)nc1` [compound 508, N-((2R,4S)-1-((6-((2-aminoethyl)(methyl)amino)pyridin-3-yl)sulfonyl)-2-methylpiperidin-4-yl)-5-cyclopropylisoxazole-3-carboxamide], IC50 0.32 µM. Against it:
- O=C(N[C@H]1C[C@H]2CC[C@@H](C1)N2S(=O)(=O)c1cc2oc(=O)[nH]c2cc1Cl)c1cc(C2CC2)on1 [compound 492, N-((1R,3r,5S)-8-((5-chloro-2-oxo-2,3-dihydrobenzo[d]oxazol-6-yl)sulfonyl)-8-azabicyclo[3.2.1]octan-3-yl)-5-cyclopropylisoxazole-3-carboxamide] — higher, > 10 µM
- C[C@H]1C[C@@H](NC(=O)c2cc(C3CC3)on2)CCN1S(=O)(=O)c1ccc(NCCN)nc1 [compound 509, N-((2S,4S)-1-((6-((2-aminoethyl)amino)pyridin-3-yl)sulfonyl)-2-methylpiperidin-4-yl)-5-cyclopropylisoxazole-3-carboxamide] — 54-fold lower, 0.00592 µM
- CC(C)CN(C)c1cc(S(=O)(=O)N2CC[C@H](NC(=O)c3cc(C4CC4)on3)C[C@@H]2C)ccn1 [compound 510, 5-cyclopropyl-N-((2S,4S)-1-((2-(isobutyl(methyl)amino)pyridin-4-yl)sulfonyl)-2-methylpiperidin-4-yl)isoxazole-3-carboxamide] — higher, > 10 µM
- CC(C)CN(C)c1cc(S(=O)(=O)N2CC[C@@H](NC(=O)c3cc(C4CC4)on3)C[C@@H]2C)ccn1 [compound 511, 5-cyclopropyl-N-((2S,4R)-1-((2-(isobutyl(methyl)amino)pyridin-4-yl)sulfonyl)-2-methylpiperidin-4-yl)isoxazole-3-carboxamide] — higher, > 10 µM
- C[C@@H]1C[C@@H](NC(=O)c2cc(C3CC3)on2)CCN1S(=O)(=O)c1ccnc(N(C)CCN)c1 [compound 512, N-((2R,4S)-1-((2-((2-aminoethyl)(methyl)amino)pyridin-4-yl)sulfonyl)-2-methylpiperidin-4-yl)-5-cyclopropylisoxazole-3-carboxamide] — 1.5-fold higher, 0.487 µM
- C[C@H]1C[C@@H](NC(=O)c2cc(C3CC3)on2)CCN1S(=O)(=O)c1ccc(C#N)nc1 [compound 513, N-((2S,4S)-1-((6-cyanopyridin-3-yl)sulfonyl)-2-methylpiperidin-4-yl)-5-cyclopropylisoxazole-3-carboxamide] — 3.4-fold higher, 1.09 µM
- CCN(CC)S(=O)(=O)N1CC[C@H](NC(=O)c2cc(C3CC3)on2)C[C@@H]1C [compound 518, 5-cyclopropyl-N-((2S,4S)-1-(N,N-diethylsulfamoyl)-2-methylpiperidin-4-yl)isoxazole-3-carboxamide] — 12-fold higher, 3.72 µM
- C[C@H]1C[C@@H](NC(=O)c2cc(C3CC3)on2)CCN1S(=O)(=O)c1cccc(C(F)(F)F)n1 [compound 519, 5-cyclopropyl-N-((2S,4S)-2-methyl-1-((6-(trifluoromethyl)pyridin-2-yl)sulfonyl)piperidin-4-yl)isoxazole-3-carboxamide] — 1.6-fold lower, 0.204 µM
- C[C@H]1C[C@@H](NC(=O)c2cc(C3CC3)on2)CCN1S(=O)(=O)c1cccc(NCCCN)n1 [compound 520, N-((2S,4S)-1-((6-((3-aminopropyl)amino)pyridin-2-yl)sulfonyl)-2-methylpiperidin-4-yl)-5-cyclopropylisoxazole-3-carboxamide] — 6.4-fold lower, 0.0501 µM
- C[C@H]1C[C@@H](NC(=O)c2cc(C3CC3)on2)CCN1S(=O)(=O)c1cccc(N(C)CCN2CCOCC2)n1 [compound 521, 5-cyclopropyl-N-((2S,4S)-2-methyl-1-((6-(methyl(2-morpholinoethyl)amino)pyridin-2-yl)sulfonyl)piperidin-4-yl)isoxazole-3-carboxamide] — 14-fold higher, 4.5 µM
- C[C@H]1C[C@@H](NC(=O)c2cc(C3CC3)on2)CCN1S(=O)(=O)c1ccc(N)nc1 [compound 522, N-((2S,4S)-1-((6-aminopyridin-3-yl)sulfonyl)-2-methylpiperidin-4-yl)-5-cyclopropylisoxazole-3-carboxamide] — within 1.5-fold, 0.407 µM
- C[C@H]1C[C@@H](NC(=O)c2cc(C3CC3)on2)CCN1S(=O)(=O)c1cccnc1N [compound 523, N-((2S,4S)-1-((2-aminopyridin-3-yl)sulfonyl)-2-methylpiperidin-4-yl)-5-cyclopropylisoxazole-3-carboxamide] — 3.4-fold higher, 1.08 µM

Same assay, conditions: Table 2A; read-out: SMYD3 Biochem IC50

For `CNCCCCS(=O)(=O)N1CC[C@H](NC(=O)c2cc(C3CC3)on2)C[C@@H]1C` [compound 561, 5-cyclopropyl-N-((2S,4S)-2-methyl-1-((4-(methylamino)butyl)sulfonyl)piperidin-4-yl)isoxazole-3-carboxamide], the IC50 was 0.0051 µM.

Same assay, conditions: average of n = 1 to n = 50; read-out: SMYD3 Biochem IC50

Point of comparison: `C[C@@H]1C[C@@H](NC(=O)c2cc(C3CC3)on2)CCN1S(=O)(=O)C(CCN)c1ccccc1` (stereo partly drawn) [compound 704, N-((2R,4S)-1-((3-amino-1-phenylpropyl)sulfonyl)-2-methylpiperidin-4-yl)-5-cyclopropylisoxazole-3-carboxamide], IC50 0.218 µM. Against it:
- COCCN(C)CCCS(=O)(=O)N1[C@@H]2CC[C@H]1C[C@@H](NC(=O)c1cc(C3CC3)on1)C2 [compound 665, 5-cyclopropyl-N-((1R,3r,5S)-8-((3-((2-methoxyethyl)(methyl)amino)propyl)sulfonyl)-8-azabicyclo[3.2.1]octan-3-yl)isoxazole-3-carboxamide] — 2.5-fold lower, 0.0868 µM
- Nc1cccc(S(=O)(=O)N2[C@@H]3CCC[C@H]2C[C@H](NC(=O)c2cc(C4CC4)on2)C3)n1 [compound 740, N-((1R,3s,5S)-9-((6-aminopyridin-2-yl)sulfonyl)-9-azabicyclo[3.3.1]nonan-3-yl)-5-cyclopropylisoxazole-3-carboxamide] — 2.3-fold higher, 0.498 µM
- Cc1ccnc(S(=O)(=O)N2CC[C@H](NC(=O)c3cc(C4CC4)on3)C[C@@H]2C)c1 [compound 741, 5-cyclopropyl-N-((2S,4S)-2-methyl-1-((4-methylpyridin-2-yl)sulfonyl)piperidin-4-yl)isoxazole-3-carboxamide] — 2.3-fold higher, 0.512 µM
- CC1(C(=O)N2CCC(NC(=O)c3cc(C4CC4)on3)CC2)CCNCC1 [compound 760, 5-cyclopropyl-N-(1-(4-methylpiperidine-4-carbonyl)piperidin-4-yl)isoxazole-3-carboxamide] — 3.4-fold higher, 0.742 µM
- Cc1ccc(S(=O)(=O)N2C3CCC[C@@H]2C[C@@H](NC(=O)c2cc(C4CC4)on2)C3)nc1 [compound 763, 5-cyclopropyl-N-((1R,3S)-9-((5-methylpyridin-2-yl)sulfonyl)-9-azabicyclo[3.3.1]nonan-3-yl)isoxazole-3-carboxamide] — 3.5-fold higher, 0.77 µM

Same assay, conditions: read-out: SMYD3 Biochem IC50

Point of comparison: `NCCNc1ccc(S(=O)(=O)N2C3CCCC2CC(NC(=O)c2cc(C4CC4)on2)C3)cn1` (centres unmarked) [compound 515, N-(9-((6-((2-aminoethyl)amino)pyridin-3-yl)sulfonyl)-9-azabicyclo[3.3.1]nonan-3-yl)-5-cyclopropylisoxazole-3-carboxamide], IC50 0.0176 µM. Against it:
- CC(C)CN(C)c1ccc(S(=O)(=O)N2C3CCCC2CC(NC(=O)c2cc(C4CC4)on2)C3)cn1 (centres unmarked) [compound 514, 5-cyclopropyl-N-(9-((6-(isobutyl(methyl)amino)pyridin-3-yl)sulfonyl)-9-azabicyclo[3.3.1]nonan-3-yl)isoxazole-3-carboxamide] — higher, > 10 µM
- NCCCNc1ccc(S(=O)(=O)N2C3CCCC2CC(NC(=O)c2cc(C4CC4)on2)C3)cn1 (centres unmarked) [compound 516, N-(9-((6-((3-aminopropyl)amino)pyridin-3-yl)sulfonyl)-9-azabicyclo[3.3.1]nonan-3-yl)-5-cyclopropylisoxazole-3-carboxamide] — 4.2-fold higher, 0.0742 µM
- CN(CCCN)c1ccc(S(=O)(=O)N2C3CCCC2CC(NC(=O)c2cc(C4CC4)on2)C3)cn1 (centres unmarked) [compound 517, N-(9-((6-((3-aminopropyl)(methyl)amino)pyridin-3-yl)sulfonyl)-9-azabicyclo[3.3.1]nonan-3-yl)-5-cyclopropylisoxazole-3-carboxamide] — 4.6-fold higher, 0.0803 µM
- CNc1ncccc1S(=O)(=O)N1C2CCCC1CC(NC(=O)c1cc(C3CC3)on1)C2 (centres unmarked) [compound 524, 5-cyclopropyl-N-(9-((2-(methylamino)pyridin-3-yl)sulfonyl)-9-azabicyclo[3.3.1]nonan-3-yl)isoxazole-3-carboxamide] — 110-fold higher, 1.85 µM

Same assay, conditions: read-out: SMYD3 Biochem IC50 (μM)*

`N[C@H]1CC[C@@H](C(=O)N2[C@@H]3CC[C@H]2C[C@H](NC(=O)c2cc(C4CC4)on2)C3)CC1` [compound 486, N-((1R,3S,5S)-8-((1s,4S)-4-aminocyclohexane-1-carbonyl)-8-azabicyclo[3.2.1]octan-3-yl)-5-cyclopropylisoxazole-3-carboxamide] was tested, and the IC50 was > 10 µM.

Same assay, conditions: read-out: SMYD3 Biochem IC50*

Point of comparison: `C[C@H]1C[C@@H](NC(=O)c2cc(C3CC3)on2)CCN1S(=O)(=O)C[C@H]1CCCNC1` [compound 854, 5-cyclopropyl-N-((2S,4S)-2-methyl-1-((((S)-piperidin-3-yl)methyl)sulfonyl)piperidin-4-yl)isoxazole-3-carboxamide], IC50 0.00692 µM. Against it:
- C[C@H]1C[C@@H](NC(=O)c2cc(C3CC3)on2)CCN1S(=O)(=O)C[C@@H]1CCCNC1 [compound 875, 5-cyclopropyl-N-((2S,4S)-2-methyl-1-((((R)-piperidin-3-yl)methyl)sulfonyl)piperidin-4-yl)isoxazole-3-carboxamide] — within 1.5-fold, 0.01 µM
- O=C(N[C@H]1C[C@H]2CC[C@@H](C1)N2S(=O)(=O)N1CCNCC1Cc1ccccc1)c1cc(C2CC2)on1 (stereo partly drawn) [compound 940, N-((1R,3r,5S)-8-((2-benzylpiperazin-1-yl)sulfonyl)-8-azabicyclo[3.2.1]octan-3-yl)-5-cyclopropylisoxazole-3-carboxamide] — 6.9-fold higher, 0.0475 µM
